The text below walks through data of a melting point compilation (Tetko et al.; mined from patent text by program, amines drawn as free bases though some values may be those of a salt).

Bounds are passed on as bounds.

For the compound `CC(=O)N[C@@H](CCC(N)=O)C(=O)NC1(C(=O)NCCCCNC(N)=NC#N)Cc2ccccc2C1`, the melting point (in general, the temperature of the solid-liquid transition) lay within 122 to 133 °C.

For `O=[N+]([O-])c1cc(Cl)c(Oc2cc(Cl)c(Cl)cc2Cl)cc1Oc1ccccc1`, the melting point was 84 °C. Under `CSCc1nc2c(N)nc3ccccc3c2n1Cc1ccccc1` stands 217 to 219 °C; under `CCOC(=O)COc1ccc(N)cc1Cl`, 59 to 62 °C; under `Cn1c(CO)nnc1NCCCCOc1cccc(CN2CCCCC2)c1`, 128 to 130 °C. In turn, `CC(Cc1ccc(OCc2ccccc2)cc1)NCC(O)c1cc2ccccc2o1` (centres undefined) returned a melting point of 111 to 122 °C. With `COc1ccccc1OC(c1ccccc1)C(O)CN` (centres undefined), the melting point is 80 to 110 °C. The figure for `COC(=O)c1cccn1Cc1ccccc1` is 31 to 32 °C; for `CC(C)(C)c1cc(NC(=O)Nc2ccc(Oc3ccccc3)cc2)on1` it is 182 to 184 °C; for `O=C(O)Cc1c(C(=O)c2cc3ccccc3cn2)[nH]c2cc(Cl)ccc12` it is 236 to 237 °C.

`N#Cc1ccc(Oc2ccccc2)cn1` yielded a melting point of 84 to 85 °C. The figure for `O=C(CCCCCOc1ccc([N+](=O)[O-])cc1)OCCOCCOC(=O)CCCCCOc1ccc([N+](=O)[O-])cc1` is 60 to 62 °C; for `CCC(=O)C(=CN(C)C)Oc1cc(Cl)cc(Cl)c1` it is 96 to 97 °C; for `O=C1NC(=O)C(c2c[nH]c3ccccc23)C1C(=O)c1cn2c3c(cccc13)CCC2` (centres undefined) it is 283 to 285 °C. For the compound `COc1ccc(NS(=O)(=O)c2ccc(N3CCC(NC[C@H](O)COc4ccc(O)cc4)CC3)cc2)cc1OC`, the melting point was 101 to 106 °C. `CCOC(=O)C(OC(=O)c1ccc(O)cc1)C(F)(F)F` (centres undefined): the melting point worked out at 83.8 °C. The figure for `Nc1ccc(N2CCN(Cc3ccccc3)CC2)cc1CS(=O)(=O)c1ccccc1` is 141 to 143 °C; for `O=C1NCCCN1c1cc(C(c2cc(F)ccc2F)S(=O)(=O)c2ccc(Cl)cc2)c(Cl)cn1` (centres undefined) it is greater than 230 °C. Under `COC(=O)C(=C(C)C)N1CC(NC(=O)OCc2ccccc2)C1=O` (centres undefined) stands 135 to 137 °C; under `CC(C)OCCOc1c(-c2ccc(S(N)(=O)=O)cc2)cnn(-c2ccc(F)c(F)c2)c1=O`, 54 to 56 °C; under `Cc1cc(N2CCN(C(=O)OC(C)(C)C)CC2)ccc1[N+](=O)[O-]`, 145 to 146 °C.

In turn, `CC(=O)OCC(=O)Nc1cccc([N+](=O)[O-])c1C#N` registered a melting point of 157 to 158 °C. Under `COc1cc(OC)nc(N=C=S)n1` stands 85 to 86 °C; under `Cc1oc(C(C)C)cc1C(=O)O`, 88.5 °C. The figure for `CN(C)Cc1nc(C(=O)N(C)C)nn1-c1ccc(Cl)cc1C(=O)c1ccccc1F` is 140 to 142 °C; for `COC(=O)c1ccc2nc(Sc3nnc(C)s3)c(C(F)(F)F)nc2c1` it is 151 to 152 °C. Take `CCc1cc(C)c2c(-c3cccc(Br)c3)cc(=O)n(CC)c2n1`: the melting point is 107 to 108 °C. Under `COc1ccc(C(NC(C)c2cc(F)cc(F)c2)c2cc(N)ccc2OC)cc1` (centres undefined) stands 105 to 106 °C. Under `CC(=C(C#N)C(=O)c1ccc(F)cc1)N(C)C` stands 65 to 67 °C. In turn, `OCCCn1c(C2CCCCC2)nc2ccc(Cl)cc21` returned a melting point of 120 °C. The compound `CCCc1nc2c(N)nc3ccccc3c2n1CCCCNS(C)(=O)=O` returned a melting point of 186 to 188 °C. Under `O=C(NCCCCC1CCSS1)N1CCCC1` (centres undefined) stands 91 to 93 °C. The figure for `OCCCCOc1ccc2ccccc2c1` is 66.5 to 67.5 °C; for `N#Cc1cc(C(F)(F)F)[nH]c1-c1ccccc1Cl` it is 151 to 152 °C; for `O=C(C=Cc1ccccc1)Nc1cccc(O)c1` it is 222 to 223 °C. Under `CS(=O)c1ccc2[nH]c3cc(C(=O)Nc4nnn[nH]4)nn3c(=O)c2c1` (centres undefined) stands greater than 350 °C; under `O=S(=O)(c1ccc(O)cc1)c1ccc(F)cc1`, 150 to 154 °C; under `CCOC(=O)C(Cc1cnc2ccc(OC)cc2c1)(NC(C)=O)C(=O)OCC`, 151 to 152 °C. As for `COCCNC(=O)c1cccc(-c2cccc3oc(Cc4ccc(F)c(Cl)c4)cc23)c1`, the melting point was 77 to 78 °C. Compound `CC(C)(C)n1c(Cl)c(-c2ccc(Oc3ccccc3)cc2)c2c(N)ncnc21` yielded a melting point of 137 to 138 °C. On to `Nc1nn(-c2c(Cl)cc(C(F)(F)F)cc2Cl)cc1C1CC1(Br)Br` (centres undefined), for which the melting point lay within 125 to 126 °C.

In turn, `CCCCCCCOc1ccc(C(=O)O)c(F)c1F` returned a melting point of 105 °C. Turning to `CCCCCCCCCCCCCCc1ccc(OCC(CO)OC)cc1` (centres undefined), the melting point fell in the range of 43 to 45 °C. The figure for `c1ccc2[nH]c(-c3cc[nH]n3)nc2c1` is 335 to 338 °C; for `C/C=C/C=C(\C[C@H](N)C(=O)O)C(=O)O` it is 190 °C. On to `COc1ccc2c(c1)c(SC)c(C(=O)O)n2C`, for which the melting point is 165 °C. The figure for `Cc1c2ccccc2nc2ccc3nc4ccccc4c(C)c3c12` is 217 to 218 °C. Consider `C#CCN1C(=O)COc2cc(F)c(N(C(=O)CCl)C(=O)C3=C(C(=O)OC)CCCC3)cc21`, for which the melting point was 156 to 158 °C. For `CCc1ccc2oc(Cc3cccc(OC)c3)c(CCNC(C)=O)c2c1`, the melting point was found to be 102 °C. As to `Nc1nc2ccc(S(=O)(=O)n3c(CCC(=O)O)cc4cc(C(F)(F)F)ccc43)cc2s1`, the melting point was greater than 250 °C.

As to `OC(c1ccc(Cl)cc1)(c1cccnc1)c1ccc2noc(-c3cccc(Cl)c3)c2c1` (centres undefined), the melting point amounted to 199 °C. The figure for `O=C(O)c1cc([N+](=O)[O-])ccc1NCCc1ccccc1` is 116 to 118 °C.

Compound `Oc1cccc(CCc2nc(-c3ccccc3)c(-c3ccccc3)s2)c1` yielded a melting point of 166 to 168 °C. `CC(=O)OC1CSC(Oc2cncc(-c3cccnc3Cl)c2)C(OC(C)=O)C1OC(C)=O` (centres undefined) gave a melting point of 162 °C. The figure for `O=C1CNCC2=C1N=C1N=C(N3CCOCC3)NN1C2` is 308 to 310 °C. As to `O=C(N1CC2CCC(C1)O2)C12CC3CC(CC(C3)C1)C2`, the melting point fell in the range of 134 to 136 °C. `O=C(C=Cc1ccc(Br)s1)Nc1nnn[nH]1` came in with a melting point of 268 °C. The compound `NS(=O)(=O)c1ccc(N2C(=O)CN(c3ccccc3)C2=O)c(Cl)c1` yielded a melting point of 241 to 243 °C. Under `CC(C)(C)OC(=O)N1CCN2C(=O)OC(c3ccccc3)C2C1` (centres undefined) stands 133 to 135 °C. Under `O=C1C2=C(CCCC2)C(=O)N1c1ccc(Cl)cc1F` stands 81 to 82 °C; under `CCOC(=O)/C=C(C)/C=C/C=C(\C)C1=Cc2cc(C(C)(C)C)ccc2OC1`, 129 °C.

Compound `CS(=O)c1ccc(CCCCl)cc1` (centres undefined) showed a melting point of 46 °C. The figure for `CC(C)(C)c1cc(OCc2ccc(C(=O)O)cc2)cc(C(C)(C)C)c1` is 212 to 215 °C; for `CC(C)(C)OC(=O)c1cn(-c2cccnc2)cn1` it is 81 to 82 °C; for `CCCCC#CCCOc1cc(/C=C/C(=O)Nc2ccccc2C(=O)O)ccc1OC` it is 157 to 158 °C. The figure for `O=C(NNS(=O)(=O)c1ccccc1)c1ccc(-c2ccccc2)cc1` is 216 to 219 °C; for `COc1ccc(-c2c(Cl)c(CCl)nc3sc4c(c23)CCN(Cc2ccccc2)C4)cc1OC` it is 171 to 172 °C; for `Cc1nc(-c2ccc(C(F)(F)F)cc2)sc1COc1ccc(/C=C/C(=O)O)cc1` it is 226 to 228 °C. The figure for `CCn1c2ccccc2c2cc(-n3c(CC(=O)O)c(C(=O)O)c4cc(Oc5ccc(C(F)(F)F)cc5)ccc43)ccc21` is 243 to 245 °C; for `CCCCCCc1nccc2c(CC(=O)O)cccc12` it is 152 °C; for `COc1ccccc1NC(=O)Nc1ccc(CC(=O)O)cc1` it is 165 to 168 °C. On to `Cc1nc(N)nc(N)c1C=CC(C)(C)c1ccc(Cl)cc1`, for which the melting point fell in the range of 195 to 200 °C.

`O=C(O)c1c(Cc2cc3c(cc2Cl)OCO3)c(-c2ccccn2)nn1CC1CCCCC1`: the melting point worked out at 238 °C. `CCOC(=O)C1=C(COCc2nc(C)cs2)NC(C)=C(C(=O)OC)C1c1ccccc1Cl` (centres undefined): the melting point was in the range of 107 to 110 °C. Under `CC(C)(C)c1cc2c(=O)[nH]cnc2o1` stands 198 to 200 °C; under `COc1cc2c(c3c1OC(C)(C)C3)C(c1cccc(Br)c1)=NCC2(C)C`, 127 to 129 °C; under `BrCc1cccc2c(-c3ccc(Br)cc3)onc12`, 159 to 161 °C.

`CC(Cc1ccc(Cl)c(Cl)c1)C(=O)Nc1cccc2ncccc12` (centres undefined) yielded a melting point of 168 to 170 °C. Under `Cc1csc(-c2c(C)c(NC(=O)CC(C)(C)C)c(C)c3c2OCC3c2ccc(C(C)C)cc2)n1` (centres undefined) stands 240 to 241 °C. Under `CC(=O)Nc1nc2c(ncn2COC(COC(C)=O)COC(C)=O)c(=O)[nH]1` stands 172 °C; under `Cc1ccn(-c2ccc(-c3nc4cccnc4n3-c3ccc(CCNCC(O)COc4ccc(O)cc4)cc3)c(Cl)c2)n1` (centres undefined), 87 to 89 °C; under `CC(Oc1ccc(OCc2ccccc2)cc1)C(=O)N(C)C#N` (centres undefined), 56 to 58 °C. Under `CCCS(=O)(=O)Nc1cccc(C)c1C(N)c1cccn2c(C)c(C)nc12` (centres undefined) stands 245 to 248 °C; under `O=[N+]([O-])c1cc(-n2ccnc2)ccc1Sc1cccc2cnccc12`, 187 to 189 °C; under `O=C(O)c1cccc(N2CCc3ccccc32)c1`, 168 to 170 °C. In turn, `O=c1[nH]c2ccc(S(=O)CCN3CCC(Cc4ccc(Cl)c(Cl)c4)CC3)cc2o1` (centres undefined) had a melting point of 189 to 191 °C. The figure for `CCOC(=O)N[C@H](C(=O)NN(Cc1ccc(-c2cncs2)cc1)C[C@H](O)[C@H](Cc1ccccc1)NC(=O)[C@@H](NC(=O)OC)C(C)C)C(C)C` is 243 to 244 °C. Under `O=[N+]([O-])C1(Cl)C=CC(S(=O)c2ccc(Br)cc2)=CC1` (centres undefined) stands 138 to 140 °C; under `CN(CCOc1ccc(CON=C(C(=O)O)c2ccccc2)cc1)c1ccccn1`, 93 to 94 °C.
